Experimental data as given in publication PMC5218480 (PLoS ONE, 2017).

Test system: MV-4-11 cells
Assay: Gene expression microarray analysis (Affymetrix PrimeView) and GSEA
Format: cell-based, human
Design: RFU PODN (11730768_x_at) / Fold change /veh PODN (11730768_x_at) / RFU LINC00158 (11744669_a_at) / Fold change /veh LINC00158 (11744669_a_at) / RFU DUSP10 (11751237_a_at) / Fold change /veh DUSP10 (11751237_a_at) / RFU ID3 (11757404_x_at) / Fold change /veh ID3 (11757404_x_at) / RFU PLEKHG5 (11737974_s_at) / Fold change /veh PLEKHG5 (11737974_s_at) / RFU LRRC4B (11730491_at) / Fold change /veh LRRC4B (11730491_at) / RFU GIMAP4 (11747438_a_at) / Fold change /veh GIMAP4 (11747438_a_at) / RFU KRT8 (11758183_x_at) / Fold change /veh KRT8 (11758183_x_at) / RFU CNN1 (11734310_a_at) / Fold change /veh CNN1 (11734310_a_at) / RFU VPS37D (11726825_at) / Fold change /veh VPS37D (11726825_at) / RFU C10orf10 (11716522_x_at) / Fold change /veh C10orf10 (11716522_x_at) / RFU KIR2DL2 /// KIR2DL4 /// KIR2DL5A /// KIR2DL5B /// KIR2DS1 /// KIR2DS2 /// KIR2DS3 /// KIR2DS4 /// KIR3DL3 /// KIR3DL3 /// KIR3DS1 (11738374_at) / Fold change /veh KIR2DL2 /// KIR2DL4 /// KIR2DL5A /// KIR2DL5B /// KIR2DS1 /// KIR2DS2 /// KIR2DS3 /// KIR2DS4 /// KIR3DL3 /// KIR3DL3 /// KIR3DS1 (11738374_at) / RFU C1QL1 (11718748_at) / Fold change /veh C1QL1 (11718748_at) / RFU TMPRSS4 (11747572_a_at) / Fold change /veh TMPRSS4 (11747572_a_at) / RFU HAMP (11756126_x_at) / Fold change /veh HAMP (11756126_x_at) / RFU RNFT2 (11725882_a_at) / Fold change /veh RNFT2 (11725882_a_at) / RFU NR4A2 (11747474_a_at) / Fold change /veh NR4A2 (11747474_a_at) / RFU ABCC12 (11746883_a_at) / Fold change /veh ABCC12 (11746883_a_at) / RFU TMEM136 (11760407_x_at) / Fold change /veh TMEM136 (11760407_x_at) / RFU CLDN22 /// WWC2 (11732394_at) / Fold change /veh CLDN22 /// WWC2 (11732394_at) / RFU HLA-DPB1 (11760878_x_at) / Fold change /veh HLA-DPB1 (11760878_x_at) / RFU SPINT1 (11716480_a_at) / Fold change /veh SPINT1 (11716480_a_at) / RFU GAP43 (11754022_s_at) / Fold change /veh GAP43 (11754022_s_at) / RFU A4GNT (11735810_at) / Fold change /veh A4GNT (11735810_at) / RFU PRB3 (11715151_x_at) / Fold change /veh PRB3 (11715151_x_at) / RFU TUBB4B (11761932_at) / Fold change /veh TUBB4B (11761932_at) / RFU CAPN14 (11732068_a_at) / Fold change /veh CAPN14 (11732068_a_at) / RFU TMCC2 (11721928_a_at) / Fold change /veh TMCC2 (11721928_a_at) / RFU IRGQ (11745062_a_at) / Fold change /veh IRGQ (11745062_a_at) / RFU FAM174B (11720279_a_at) / Fold change /veh FAM174B (11720279_a_at) / RFU TMPRSS4 (11748680_a_at) / Fold change /veh TMPRSS4 (11748680_a_at) / RFU FAM212B (11763350_a_at) / Fold change /veh FAM212B (11763350_a_at) / RFU PLEKHG5 (11743358_a_at) / Fold change /veh PLEKHG5 (11743358_a_at) / RFU ZSCAN30 (11745921_a_at) / Fold change /veh ZSCAN30 (11745921_a_at) / RFU CMKLR1 (11741424_a_at) / Fold change /veh CMKLR1 (11741424_a_at) / RFU LOC101060620 /// MAPK8IP1 (11723275_at) / Fold change /veh LOC101060620 /// MAPK8IP1 (11723275_at) / RFU SPTSSB (11747773_x_at) / Fold change /veh SPTSSB (11747773_x_at) / RFU PRSS12 (11739890_at) / Fold change /veh PRSS12 (11739890_at) / RFU BIN1 (11741810_x_at) / Fold change /veh BIN1 (11741810_x_at) / RFU WNT11 (11732464_a_at) / Fold change /veh WNT11 (11732464_a_at) / RFU C10orf10 (11716521_a_at) / Fold change /veh C10orf10 (11716521_a_at) / RFU C5orf56 (11738089_at) / Fold change /veh C5orf56 (11738089_at) / RFU CYB561 (11721691_x_at) / Fold change /veh CYB561 (11721691_x_at) / RFU ANKRD19P (11752326_a_at) / Fold change /veh ANKRD19P (11752326_a_at) / RFU OR2T12 /// OR2T33 /// OR2T8 (11738714_s_at) / Fold change /veh OR2T12 /// OR2T33 /// OR2T8 (11738714_s_at) / RFU VCAN (11748164_a_at) / Fold change /veh VCAN (11748164_a_at) / RFU JSRP1 (11732532_at) / Fold change /veh JSRP1 (11732532_at) / RFU KRTAP10-11 (11738290_x_at) / Fold change /veh KRTAP10-11 (11738290_x_at) / RFU MYO3A (11730013_a_at) / Fold change /veh MYO3A (11730013_a_at) / RFU EBF3 (11725865_a_at) / Fold change /veh EBF3 (11725865_a_at) / RFU CAMK2N1 (11719241_x_at) / Fold change /veh CAMK2N1 (11719241_x_at) / RFU C5orf56 (11738088_a_at) / Fold change /veh C5orf56 (11738088_a_at) / RFU OLFML3 (11715873_a_at) / Fold change /veh OLFML3 (11715873_a_at) / RFU LOC100653217 /// NTM (11731650_a_at) / Fold change /veh LOC100653217 /// NTM (11731650_a_at) / RFU MAPK11 (11762145_a_at) / Fold change /veh MAPK11 (11762145_a_at) / RFU FIZ1 (11724087_x_at) / Fold change /veh FIZ1 (11724087_x_at) / RFU OASL (11726364_x_at) / Fold change /veh OASL (11726364_x_at) / RFU SOX15 (11748057_x_at) / Fold change /veh SOX15 (11748057_x_at) / RFU CD79A (11719716_a_at) / Fold change /veh CD79A (11719716_a_at) / RFU HIST1H1D (11736915_at) / Fold change /veh HIST1H1D (11736915_at) / RFU CASKIN2 (11723855_a_at) / Fold change /veh CASKIN2 (11723855_a_at) / RFU LOC730098 (11760151_x_at) / Fold change /veh LOC730098 (11760151_x_at) / RFU OR4N2 (11742367_at) / Fold change /veh OR4N2 (11742367_at) / RFU PRRT2 (11749266_a_at) / Fold change /veh PRRT2 (11749266_a_at) / RFU SNX32 (11753110_a_at) / Fold change /veh SNX32 (11753110_a_at) / RFU CDHR5 (11726645_a_at) / Fold change /veh CDHR5 (11726645_a_at) / RFU RCAN1 (11760418_a_at) / Fold change /veh RCAN1 (11760418_a_at) / RFU FAM167A (11723789_a_at) / Fold change /veh FAM167A (11723789_a_at) / RFU FAM26E (11764081_at) / Fold change /veh FAM26E (11764081_at) / RFU ISYNA1 (11749810_s_at) / Fold change /veh ISYNA1 (11749810_s_at) / RFU ACY1 (11761880_at) / Fold change /veh ACY1 (11761880_at) / RFU 11764098_at / Fold change /veh 11764098_at / RFU SAMD14 (11745864_x_at) / Fold change /veh SAMD14 (11745864_x_at) / RFU NPB (11741838_a_at) / Fold change /veh NPB (11741838_a_at) / RFU TMPRSS6 (11731388_a_at) / Fold change /veh TMPRSS6 (11731388_a_at) / RFU KRTAP10-2 (11738614_at) / Fold change /veh KRTAP10-2 (11738614_at) / RFU ARHGAP8 /// PRR5-ARHGAP8 (11727945_x_at) / Fold change /veh ARHGAP8 /// PRR5-ARHGAP8 (11727945_x_at) / RFU KRTAP5-7 /// NADSYN1 (11734609_at) / Fold change /veh KRTAP5-7 /// NADSYN1 (11734609_at) / RFU RASL12 (11751679_a_at) / Fold change /veh RASL12 (11751679_a_at) / RFU CDKN2B (11736163_a_at) / Fold change /veh CDKN2B (11736163_a_at) / RFU PRF1 (11729649_at) / Fold change /veh PRF1 (11729649_at) / RFU, ZNF638 /// ZNF638-IT1 / Fold change vs veh, ZNF638 /// ZNF638-IT1 / RFU, PANK3 / Fold change vs veh, PANK3 / RFU, SH3YL1 / Fold change vs veh, SH3YL1 / RFU, ZEB2 / Fold change vs veh, ZEB2 / RFU, NRIP1 / Fold change vs veh, NRIP1 / RFU, PTTG1IP / Fold change vs veh, PTTG1IP / RFU, CAPN2 / Fold change vs veh, CAPN2 / RFU, MED14 / Fold change vs veh, MED14 / RFU, SNORA58 / Fold change vs veh, SNORA58 / RFU, C1orf63 / Fold change vs veh, C1orf63 / RFU, LRRFIP1 / Fold change vs veh, LRRFIP1 / RFU, NDUFAF7 / Fold change vs veh, NDUFAF7 / RFU, SLC12A2 / Fold change vs veh, SLC12A2 / RFU, IBTK / Fold change vs veh, IBTK / RFU, ESF1 / Fold change vs veh, ESF1 / Fold change vs veh, TMEM50B / RFU, TAOK1 / Fold change vs veh, TAOK1 / RFU, ACBD3 / Fold change vs veh, ACBD3 / RFU, TMA16 / Fold change vs veh, TMA16 / RFU, RWDD3 / Fold change vs veh, RWDD3 / RFU, BCAT1 / Fold change vs veh, BCAT1 / RFU, EDEM3 / Fold change vs veh, EDEM3 / RFU, TMEM33 / Fold change vs veh, TMEM33 / RFU, WDR75 / Fold change vs veh, WDR75 / RFU, AHCTF1 / Fold change vs veh, AHCTF1 / RFU, TFRC / Fold change vs veh, TFRC / RFU, ZDHHC17 / Fold change vs veh, ZDHHC17 / RFU, NOM1 / Fold change vs veh, NOM1 / RFU, ARL8B / Fold change vs veh, ARL8B / RFU, ZBTB11 / Fold change vs veh, ZBTB11 / RFU, TAMM41 / Fold change vs veh, TAMM41 / RFU, KIAA1704 /// LOC100996395 / Fold change vs veh, KIAA1704 /// LOC100996395 / RFU, ING1 / Fold change vs veh, ING1 / RFU, TRMT61B / Fold change vs veh, TRMT61B / RFU, FUBP3 / Fold change vs veh, FUBP3 / RFU, TP53 / Fold change vs veh, TP53 / RFU, TNKS2 / Fold change vs veh, TNKS2 / RFU, ZFP14 / Fold change vs veh, ZFP14 / RFU, ACTR2 / Fold change vs veh, ACTR2 / RFU, PPP3R1 / Fold change vs veh, PPP3R1 / RFU, PIK3R1 / Fold change vs veh, PIK3R1 / RFU, HNRNPA1 / Fold change vs veh, HNRNPA1 / RFU, RNF170 / Fold change vs veh, RNF170 / RFU, ZNF28 / Fold change vs veh, ZNF28 / RFU, RNGTT / Fold change vs veh, RNGTT / RFU, OGT / Fold change vs veh, OGT / RFU, BRD1 / Fold change vs veh, BRD1 / RFU, MARS / Fold change vs veh, MARS / RFU, ZNF655 / Fold change vs veh, ZNF655 / RFU, FAHD1 / Fold change vs veh, FAHD1 / RFU, BDP1 / Fold change vs veh, BDP1 / RFU, LRRCC1 / Fold change vs veh, LRRCC1 / RFU, ARID1A / Fold change vs veh, ARID1A / RFU, ZNF146 / Fold change vs veh, ZNF146 / RFU, ZNF330 / Fold change vs veh, ZNF330 / RFU, GPN3 / Fold change vs veh, GPN3 / RFU, C9orf123 / Fold change vs veh, C9orf123 / RFU, N4BP2L2 / Fold change vs veh, N4BP2L2 / RFU, ARFIP1 / Fold change vs veh, ARFIP1 / RFU, FAM179B / Fold change vs veh, FAM179B / RFU, BCL10 / Fold change vs veh, BCL10 / RFU, UHRF1BP1L / Fold change vs veh, UHRF1BP1L / RFU, BET1 / Fold change vs veh, BET1 / RFU, CNOT2 / Fold change vs veh, CNOT2 / RFU, ZNF268 / Fold change vs veh, ZNF268 / Fold change vs veh, ZNF507 / RFU, DGCR2 / Fold change vs veh, DGCR2 / RFU, WDSUB1 / Fold change vs veh, WDSUB1 / Fold change vs veh, HSP90B1 /// MIR3652 / RFU, ADSS / Fold change vs veh, ADSS / RFU, GK / Fold change vs veh, GK / RFU, ZNF148 / Fold change vs veh, ZNF148 / RFU, TAF9 / Fold change vs veh, TAF9 / RFU, SLC1A5 / Fold change vs veh, SLC1A5 / RFU, SLMO2 / Fold change vs veh, SLMO2 / RFU, ABCC4 / Fold change vs veh, ABCC4 / RFU, LOC101060439 /// RAP1B / Fold change vs veh, LOC101060439 /// RAP1B / RFU, RFX7 / Fold change vs veh, RFX7 / RFU, GTPBP10 / Fold change vs veh, GTPBP10 / RFU, CNEP1R1 / Fold change vs veh, CNEP1R1 / RFU, BIVM-ERCC5 /// ERCC5 / Fold change vs veh, BIVM-ERCC5 /// ERCC5 / RFU, ILF3 / Fold change vs veh, ILF3 / RFU 11762660_at / Fold change /veh 11762660_at / RFU VCAN (11757783_s_at) / Fold change /veh VCAN (11757783_s_at) / RFU DDX43 (11728927_at) / Fold change /veh DDX43 (11728927_at) / RFU KRT8 (11758188_x_at) / Fold change /veh KRT8 (11758188_x_at) / RFU NKD1 (11759106_at) / Fold change /veh NKD1 (11759106_at) / RFU SRD5A1 (11742802_a_at) / Fold change /veh SRD5A1 (11742802_a_at) / RFU TPSAB1 /// TPSB2 (11721975_s_at) / Fold change /veh TPSAB1 /// TPSB2 (11721975_s_at) / RFU GSTM3 (11746129_a_at) / Fold change /veh GSTM3 (11746129_a_at) / RFU IL23R (11737362_x_at) / Fold change /veh IL23R (11737362_x_at) / RFU TMEM51 (11727254_a_at) / Fold change /veh TMEM51 (11727254_a_at) / RFU PIWIL2 (11732686_x_at) / Fold change /veh PIWIL2 (11732686_x_at) / RFU ORM1 (11744905_x_at) / Fold change /veh ORM1 (11744905_x_at) / RFU CCDC152 (11743942_at) / Fold change /veh CCDC152 (11743942_at) / RFU ECM1 (11717891_a_at) / Fold change /veh ECM1 (11717891_a_at) / RFU IL23R (11748794_a_at) / Fold change /veh IL23R (11748794_a_at) / RFU TNFAIP8L3 (11732012_x_at) / Fold change /veh TNFAIP8L3 (11732012_x_at) / RFU MBOAT4 (11741988_at) / Fold change /veh MBOAT4 (11741988_at) / RFU 11764193_at / Fold change /veh 11764193_at / RFU TMEM53 (11763286_at) / Fold change /veh TMEM53 (11763286_at) / RFU MAGEB2 (11727129_at) / Fold change /veh MAGEB2 (11727129_at) / RFU TMEM200A (11744735_a_at) / Fold change /veh TMEM200A (11744735_a_at) / RFU CCDC152 (11751479_a_at) / Fold change /veh CCDC152 (11751479_a_at) / RFU FAM211A (11726209_a_at) / Fold change /veh FAM211A (11726209_a_at) / RFU RGS16 (11746705_a_at) / Fold change /veh RGS16 (11746705_a_at) / RFU VCAN (11755009_s_at) / Fold change /veh VCAN (11755009_s_at) / RFU RHOB (11743442_s_at) / Fold change /veh RHOB (11743442_s_at) / RFU RGS16 (11720943_a_at) / Fold change /veh RGS16 (11720943_a_at) / RFU RGS16 (11720944_at) / Fold change /veh RGS16 (11720944_at) / RFU, VPS4B / Fold change vs veh, VPS4B / RFU, CREB1 / Fold change vs veh, CREB1 / RFU, DNAJC13 / Fold change vs veh, DNAJC13 / RFU, GNAQ / Fold change vs veh, GNAQ / RFU, CDK5R1 / Fold change vs veh, CDK5R1 / RFU, ZRANB3 / Fold change vs veh, ZRANB3 / RFU, CUL4A / Fold change vs veh, CUL4A / RFU, CCNY / Fold change vs veh, CCNY / RFU, UFL1 / Fold change vs veh, UFL1 / RFU, COG3 / Fold change vs veh, COG3 / RFU, DIAPH2 / Fold change vs veh, DIAPH2 / RFU, SKA2 / Fold change vs veh, SKA2 / RFU, AFF3 / Fold change vs veh, AFF3 / RFU, LMF1 / Fold change vs veh, LMF1 / RFU, IPO11 / Fold change vs veh, IPO11 / RFU, DFFB / Fold change vs veh, DFFB / RFU, FOXP1 / Fold change vs veh, FOXP1 / RFU, CARD8 / Fold change vs veh, CARD8 / RFU, STRN3 / Fold change vs veh, STRN3 / RFU, ADK / Fold change vs veh, ADK / RFU, RASSF2 / Fold change vs veh, RASSF2 / RFU, WIPF1 / Fold change vs veh, WIPF1 / RFU, LARP1B / Fold change vs veh, LARP1B / RFU, RASA1 / Fold change vs veh, RASA1 / RFU, RB1 / Fold change vs veh, RB1 / RFU, PPFIA1 / Fold change vs veh, PPFIA1 / RFU, MAT2A / Fold change vs veh, MAT2A / RFU, CCT5 / Fold change vs veh, CCT5 / RFU, WDR92 / Fold change vs veh, WDR92 / RFU, CUX1 / Fold change vs veh, CUX1 / RFU, TTC7A / Fold change vs veh, TTC7A / RFU, TMEM135 / Fold change vs veh, TMEM135 / RFU, DEPTOR / Fold change vs veh, DEPTOR / RFU, CPM / Fold change vs veh, CPM / RFU, DNAJB6 / Fold change vs veh, DNAJB6 / RFU, CACNA2D3 / Fold change vs veh, CACNA2D3 / RFU, DTX4 / Fold change vs veh, DTX4 / RFU, TFCP2 / Fold change vs veh, TFCP2 / RFU, GMCL1 /// GMCL1P1 / Fold change vs veh, GMCL1 /// GMCL1P1 / RFU, AEBP2 / Fold change vs veh, AEBP2 / RFU, SNHG1 /// SNORD22 /// SNORD25 /// SNORD26 /// SNORD27 /// SNORD28 /// SNORD29 /// SNORD31 / Fold change vs veh, SNHG1 /// SNORD22 /// SNORD25 /// SNORD26 /// SNORD27 /// SNORD28 /// SNORD29 /// SNORD31 / Fold change (Aza/veh), C12orf56 (ProbeSet 11735607_a_at) / Fold change (ACY-1035/veh), C12orf56 (ProbeSet 11735607_a_at) / Fold change (Aza/veh), FGFR1OP (ProbeSet 11751329_s_at) / Fold change (ACY-1035/veh), FGFR1OP (ProbeSet 11751329_s_at) / Fold change (Aza/veh), VPS36 (ProbeSet 11739960_a_at) / Fold change (ACY-1035/veh), VPS36 (ProbeSet 11739960_a_at) / RFU SYPL1 (11715823_x_at) / Fold change /veh SYPL1 (11715823_x_at) / RFU IGFBP7 (11715501_s_at) / Fold change /veh IGFBP7 (11715501_s_at) / RFU REEP3 (11722064_at) / Fold change /veh REEP3 (11722064_at) / RFU IGLL1 (11728026_x_at) / Fold change /veh IGLL1 (11728026_x_at): dose or concentration left out as unconfirmed
Conditions: MV-4-11 cells, 48 hours

Compound: Nc1ccc(-c2cccs2)cc1NC(=O)c1ccc2c(c1)cc(C1CC1)n2CCN1CCOCC1 [ACY-1035]
- Fold change /veh MBOAT4 (11741988_at): 1.14
